Where a name gives a salt, the structure may show the parent alone. Read-outs that look alike come from different tables or passages of the source. Blank lines part the entries; values can stand above or below the molecule they belong to. Ends that are not written are not given here.
Legend:
[1] = target: recombinant human CL receptor/RAMP1 (Homo sapiens (Human), UniProt O60894+Q16602); assay: Recombinant receptor binding assay (125I-hCGRP)
Experimental: Human CL receptor (Genbank accession number L76380) was subcloned into the expression vector pIREShyg2 (BD Biosciences Clontech) as a 5′NheI and 3′ PmeI fragment. Human RAMP1 (Genbank accession number AJ001014) was subcloned into the expression vector pIRESpuro2 (BD Biosciences Clontech) as a 5′NheI and 3′NotI fragment. HEK 293 cells (human embryonic kidney cells; ATCC #CRL-1573) were cultured in DMEM with 4.5 g/L glucose, 1 mM sodium pyruvate and 2 mM glutamine supplemented with 10% fetal bovine serum (FBS), 100 units/mL penicillin and 100 µg/mL streptomycin, and maintained at 37° C. and 95% humidity. Cells were subcultured by treatment with 0.25% trypsin with 0.1% EDTA in HBSS. Stable cell line generation was accomplished by co-transfecting 10 μg of DNA with 30 μg Lipofectamine 2000 (Invitrogen) in 75 cm^2 flasks. CL receptor and RAMP1 expression constructs were co-transfected in equal amounts. Twenty-four hours after transfection the cells were diluted and selective medium (growth medium+300 μg/mL hygromycin and 1 μg/mL puromycin) was added the following day. A clonal cell line was generated by single cell deposition utilizing a FACS Vantage SE (Becton Dickinson). Growth medium was adjusted to 150 μg/mL hygromycin and 0.5 μg/mL puromycin for cell propagation.
Recombinant Receptor Binding Assay:
The cell suspension was disrupted with a laboratory homogenizer and centrifuged at 48,000 g to isolate membranes. The pellets were resuspended in harvest buffer plus 250 mM sucrose and stored at −70° C. For binding assays, 20 μg of membranes were incubated in 1 mL binding buffer (10 mM HEPES, pH 7.4, 5 mM MgCl2, and 0.2% BSA) for 3 h at room temperature containing 10 pM ^125I-hCGRP (GE Healthcare) and antagonist. The assay was terminated by filtration through 96-well GFB glass fiber filter plates (PerkinElmer) that had been blocked with 0.05% polyethyleneimine. The filters were washed 3 times with ice-cold assay buffer (10 mM HEPES, pH 7.4, and 5 mM MgCl2). Scintillation fluid was added and the plates were counted on a Topcount (Packard). Non-specific binding was determined and the data analysis was carried out with the apparent dissociation constant (Ki) determined by using a non-linear least squares fitting the bound CPM data to the equation below:
[formula] Where Y is observed CPM bound, Ymax is total bound counts, Ymin is non specific bound counts, (Ymax−Ymin) is specific bound counts, % Imax is the maximum percent inhibition, % I min is the minimum percent inhibition, radiolabel is the probe, and the Kd is the apparent dissociation constant for the radioligand for the receptor as determined by hot saturation experiments.

facial blood flow [2] = conditions: rat (Escott et al. 1995); cited from earlier work
middle meningeal artery = conditions: rats, prior administration (Williamson et al. 1997); cited from earlier work
[3] = test system: headache induced by CGRP infusion; conditions: control group (Petersen et al. 2005); cited from earlier work
[4] = test system: acute attacks of migraine; conditions: cited from earlier work
facial blood flow [5] = conditions: marmoset (Doods et al. 2000); cited from earlier work
[6] = exemplary compounds of the invention, 10 pM 125I-hCGRP, membranes of HEK 293 cells, read-out: Ki
[7] = analogues disclosed in U.S. Pat. No. 7,390,798 and US 2010/0179166, read-out: Ki (CGRP binding data)

Chain of recombinant human CL receptor/RAMP1 (Q16602 23-461): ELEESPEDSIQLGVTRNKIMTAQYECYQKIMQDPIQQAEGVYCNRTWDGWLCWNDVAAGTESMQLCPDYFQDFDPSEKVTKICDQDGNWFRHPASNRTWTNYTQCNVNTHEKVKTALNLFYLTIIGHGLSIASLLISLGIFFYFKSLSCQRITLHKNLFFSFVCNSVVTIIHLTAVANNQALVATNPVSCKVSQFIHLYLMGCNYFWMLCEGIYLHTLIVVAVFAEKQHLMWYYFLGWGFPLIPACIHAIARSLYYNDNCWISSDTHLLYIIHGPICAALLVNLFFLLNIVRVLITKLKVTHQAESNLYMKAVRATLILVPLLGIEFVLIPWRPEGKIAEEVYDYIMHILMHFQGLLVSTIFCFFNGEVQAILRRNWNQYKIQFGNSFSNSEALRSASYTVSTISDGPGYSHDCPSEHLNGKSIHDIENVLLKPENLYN
Chain of recombinant human CL receptor/RAMP1 (O60894 27-148): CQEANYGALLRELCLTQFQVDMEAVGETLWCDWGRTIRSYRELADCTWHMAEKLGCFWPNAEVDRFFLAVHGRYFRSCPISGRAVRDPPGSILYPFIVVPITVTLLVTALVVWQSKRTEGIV

Molecule: O=C(N[C@H]1C[C@@H](c2ccccc2F)CN(CC(F)(F)F)C1=O)c1cnc2c(c1)C[C@@]1(C2)C(=O)Nc2ncccc21 [Example 6]
Ki [1, 6]: 0.21 nM

Molecule: CC(C)(O)CN1C[C@H](c2cccc(F)c2F)CC[C@@H](NC(=O)c2ccc3c(c2)CC2(C3)C(=O)Nc3ncccc32)C1=O (stereo partly drawn) [Example 10 from U.S. Pat. No. 7,390,798]
Ki [1, 7]: 1.7 nM

Molecule: CGRP (8-37) (VTHRLAGLLSRSGGVVKNNFVPTNVGSKAF; ends and bridges not checked; UniProt P06881 90-119, looked up, fragment) [a peptide CGRP receptor antagonist]
effect on increased facial blood flow (facial blood flow [2]): inhibited
effect on increase of middle meningeal artery diameter (middle meningeal artery): blocked

Molecule: Cc1ccccc1[C@@H]1C[C@H](NC(=O)c2cnc3c(c2)C[C@@]2(C3)C(=O)Nc3ncccc32)C(=O)N(CC(F)(F)F)[C@@H]1C [Example 3, (6S)—N-[(3 S,5S,6R)-6-Methyl-5-(2-methylphenyl)-2-oxo-1-(2,2,2-trifluoroethyl)piperidin-3-yl]-2′-oxo-1′,2′,5,7-tetrahydrospiro[cyclopenta[b]pyridine-6,3′-pyrrolo[2,3-b]pyridine]-3-carboxamide]
Ki [1, 6]: 0.067 nM

Molecule: NCCCC[C@H](NC(=O)[C@@H](Cc1cc(Br)c(O)c(Br)c1)NC(=O)N1CCC(N2Cc3ccccc3NC2=O)CC1)C(=O)N1CCN(c2ccncc2)CC1 [BIBN4096BS]
prevention of headache induced by CGRP infusion [3]: able to prevent headache induced by CGRP infusion
effectiveness in treating acute attacks of migraine ([4]; clinical trials (Olesen et al. 2004)): effective in treating acute attacks of migraine
effect on increase in facial blood flow (facial blood flow [5]): could be blocked

Molecule: C[C@@H]1[C@H](c2ccccc2)C[C@H](NC(=O)c2cnc3c(c2)C[C@@]2(C3)C(=O)Nc3ncncc32)C(=O)N1CC(F)(F)F [Example 31]
Ki [1, 6]: 0.17 nM

Molecule: O=C(N[C@H]1C[C@@H](c2cccc(F)c2F)CN(CC2CCC2)C1=O)c1cnc2c(c1)C[C@@]1(C2)C(=O)Nc2ncccc21 [Example 17]
Ki [1, 6]: 0.055 nM

Molecule: O=C(N[C@@H]1CC[C@@H](c2cccc(F)c2F)CN(CC(F)(F)F)C1=O)N1CCC(n2c(=O)[nH]c3ncccc32)CC1 [telcagepant]
antimigraine effectiveness ([4]; phase III clinical trials, orally bioavailable): shown antimigraine effectiveness

Molecule: O=C(N[C@@H]1CC[C@@H](c2cccc(F)c2F)CN(CC(F)(F)F)C1=O)c1ccc2c(c1)CC1(C2)C(=O)Nc2ncccc21 (stereo partly drawn) [Example 9 from U.S. Pat. No. 7,390,798]
Ki [1, 7]: 1.9 nM

Molecule: C[C@@H]1[C@H](c2cc(F)cc(F)c2F)C[C@H](NC(=O)c2cnc3c(c2)C[C@@]2(C3)C(=O)Nc3ncccc32)C(=O)N1CC(F)(F)F [Example 5, (6S)—N-[(3S,5S,6R)-6-Methyl-2-oxo-1-(2,2,2-trifluoroethyl)-5-(2,3,5-trifluorophenyl)piperidin-3-yl]-2′-oxo-1′,2′,5,7-tetrahydrospiro[cyclopenta[b]pyridine-6,3′-pyrrolo[2,3-b]pyridine]-3-carboxamide dihydrochloride]
Ki [1, 6]: 0.017 nM

The next lines start with the values.

Ki [1, 7]: 4.3 nM
Molecule: CC(C)(O)c1cnc2n1C[C@H](c1cccc(F)c1F)CC[C@H]2NC(=O)c1cc2c(cn1)CC1(C2)C(=O)Nc2ncccc21 (stereo partly drawn) [Example 8 from US 2010/0179166]

Ki [1, 7]: 7.4 nM
Molecule: CN1C[C@H](c2cccc(F)c2F)CC[C@@H](NC(=O)c2ccc3c(c2)CC2(C3)C(=O)Nc3ncccc32)C1=O (stereo partly drawn) [Example 8 from U.S. Pat. No. 7,390,798]

Ki [1, 6]: 0.14 nM
Molecule: C[C@@H]1[C@H](c2ccccc2)C[C@H](NC(=O)c2cnc3c(c2)C[C@@]2(C3)C(=O)Nc3ncc(C#N)cc32)C(=O)N1CC(F)(F)F [Example 30]

Ki [1, 6]: 0.25 nM
Molecule: O=C(N[C@H]1C[C@@H](c2c(F)cccc2Cl)CN(CC(F)(F)F)C1=O)c1cnc2c(c1)C[C@@]1(C2)C(=O)Nc2ncccc21 [Example 11]

Ki [1, 6]: 0.067 nM
Molecule: C[C@@H]1[C@H](c2ccccc2)C[C@H](NC(=O)c2cnc3c(c2)C[C@@]2(C3)C(=O)Nc3ncccc32)C(=O)N1CC(F)(F)F [Example 1, (6S)—N-[(3S,5S,6R)-6-Methyl-2-oxo-5-phenyl-1-(2,2,2-trifluoroethyl)piperidin-3-yl]-2′-oxo-1′,2′,5,7-tetrahydrospiro[cyclopenta[b]pyridine-6,3′-pyrrolo[2,3-b]pyridine]-3-carboxamide]
